Data as given in US8933079B2, “Pyridone and pyridazinone derivatives as anti-obesity agents” (Boehringer Ingelheim International GmbH, priority 2012, dated 2015).

These molecules were tested against hMCH-1R (Homo sapiens (Human), UniProt Q99705) (assay: MCH-1 receptor binding test (125I-MCH binding to hMCH-1R transfected cell membranes)). Details: competition with 100 pM 125I-MCH, membranes of CHO/Galpha16 cells stably transfected with hMCH-1R.
Protocol: Res Commun. […] After the incubation the reaction is filtered using a cell harvester through 0.5% PEI treated fibreglass filters (GF/B, Unifilter Packard). The membrane-bound radioactivity retained on the filter is then determined after the addition of scintillator substance (Packard Microscint 20) in a measuring device (TopCount of Packard). […] The analysis of the concentration binding curve is carried out on the assumption of one receptor binding site.

hMCH-1R, sequence (Q99705 whole entry): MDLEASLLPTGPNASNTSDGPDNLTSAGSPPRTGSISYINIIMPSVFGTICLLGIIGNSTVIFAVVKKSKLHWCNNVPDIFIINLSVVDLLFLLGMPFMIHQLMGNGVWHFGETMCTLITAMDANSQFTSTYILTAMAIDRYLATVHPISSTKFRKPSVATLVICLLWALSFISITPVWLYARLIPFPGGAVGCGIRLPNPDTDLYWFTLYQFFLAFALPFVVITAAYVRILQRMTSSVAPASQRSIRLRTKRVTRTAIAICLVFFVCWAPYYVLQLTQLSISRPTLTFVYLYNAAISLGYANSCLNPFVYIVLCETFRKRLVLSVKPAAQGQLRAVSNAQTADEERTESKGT

IC50	Structure (SMILES)
70 nM	Cc1cc(CN2CC[C@H](O)C2)ccc1C(=O)Cn1ccc(OCc2ccc(F)cn2)cc1=O [Example 2.4]
79 nM	CCN1CCN(Cc2ccc(C(=O)Cn3ccc(OCc4ccc(Cl)cn4)cc3=O)c(C)c2)CC1 [Example 3.1, 4-(5-Chloro-pyridin-2-ylmethoxy)-1-{2-[4-(4-ethyl-piperazin-1-ylmethyl)-2-methyl-phenyl]-2-oxo-ethyl}-1H-pyridin-2-one]
36 nM	Cc1cc(CN2CCC[C@H]2CO)ccc1C(=O)Cn1ccc(OCc2ccc(Cl)cn2)cc1=O [Example 3.2, 4-(5-Chloro-pyridin-2-ylmethoxy)-1-{2-[4-((S)-2-hydroxymethyl-pyrrolidin-1-ylmethyl)-2-methyl-phenyl]-2-oxo-ethyl}-1H-pyridin-2-one]
39 nM	Cc1cc(CN2CC[C@H](O)C2)ccc1C(=O)Cn1ccc(OCc2ccc(Cl)cn2)cc1=O [Example 3.3]
38 nM	Cc1cc(CN2CC[C@@H](O)C2)ccc1C(=O)Cn1ccc(OCc2ccc(Cl)cn2)cc1=O [Example 3.4, (R)-4-(5-Chloro-pyridin-2-ylmethoxy)-1-{2-[4-(3-hydroxy-pyrrolidin-1-ylmethyl)-2-methyl-phenyl]-2-oxo-ethyl}-1H-pyridin-2-one]
84 nM	Cc1cc(CN2CCN(C)CC2)ccc1C(=O)Cn1ccc(OCc2ccc(Cl)cn2)cc1=O [Example 3.5]
36 nM	Cc1cc(CN2CCC(O)CC2)ccc1C(=O)Cn1ccc(OCc2ccc(Cl)cn2)cc1=O [Example 3.7]
26 nM	Cc1cc(CN2CCCC2)ccc1C(=O)Cn1ccc(OCc2ccc(Cl)cn2)cc1=O [Example 3.8, 4-(5-Chloro-pyridin-2-ylmethoxy)-1-[2-(2-methyl-4-pyrrolidin-1-ylmethyl-phenyl)-2-oxo-ethyl]-1H-pyridin-2-one]
26 nM	CCNCc1ccc(C(=O)Cn2ccc(OCc3ccc(Cl)cn3)cc2=O)c(C)c1 [Example 3.11, 4-(5-Chloro-pyridin-2-ylmethoxy)-1-[2-(4-ethylaminomethyl-2-methyl-phenyl)-2-oxo-ethyl]-1H-pyridin-2-one]
34 nM	Cc1cc(CN2CCC(CO)CC2)ccc1C(=O)Cn1ccc(OCc2ccc(Cl)cn2)cc1=O [Example 3.12]
34 nM	Cc1cc(CN2CCC[C@@H](O)C2)ccc1C(=O)Cn1ccc(OCc2ccc(Cl)cn2)cc1=O [Example 3.13, (R)-4-(5-Chloro-pyridin-2-ylmethoxy)-1-{2-[4-(3-hydroxy-piperidin-1-ylmethyl)-2-methyl-pheny]-2-oxo-ethyl}-1H-pyridin-2-one]
37 nM	Cc1cc(CN2CCCC[C@@H]2CO)ccc1C(=O)Cn1ccc(OCc2ccc(Cl)cn2)cc1=O [Example 3.14]
31 nM	Cc1cc(CN2CC(O)C2)ccc1C(=O)Cn1ccc(OCc2ccc(Cl)cn2)cc1=O [Example 3.15, 4-(5-Chloro-pyridin-2-ylmethoxy)-1-{2-[4-(3-hydroxy-azetidin-1-ylmethyl)-2-methyl-phenyl]-2-oxo-ethyl}-1H-pyridin-2-one]
19 nM	Cc1cc(CN2CC3CC(C2)C3O)ccc1C(=O)Cn1ccc(OCc2ccc(Cl)cn2)cc1=O (centres unmarked) [Example 3.16]
16 nM	Cc1cc(CN2CCC(O)CC2)ccc1C(=O)Cn1ccc(OCc2ccc(Br)cn2)cc1=O [Example 4.2, 4-(5-Bromo-pyridin-2-ylmethoxy)-1-{2-[4-(4-hydroxy-piperidin-1-ylmethyl)-2-methyl-phenyl]-2-oxo-ethyl}-1H-pyridin-2-one]
13 nM	Cc1cc(CN2CCC(CO)CC2)ccc1C(=O)Cn1ccc(OCc2ccc(Br)cn2)cc1=O [Example 4.3, 4-(5-Bromo-pyridin-2-ylmethoxy)-1-{2-[4-(4-hydroxymethyl-piperidin-1-ylmethyl)-2-methyl-phenyl]-2-oxo-ethyl}-1H-pyridin-2-one]
18 nM	Cc1cc(CN2CCC[C@H](O)C2)ccc1C(=O)Cn1ccc(OCc2ccc(Br)cn2)cc1=O [Example 4.4, (S)-4-(5-Bromo-pyridin-2-ylmethoxy)-1-{2-[4-(3-hydroxy-piperidin-1-ylmethyl)-2-methyl-phenyl]-2-oxo-ethyl}-1H-pyridin-2-one]
13 nM	Cc1cc(CN2CCC[C@H]2CO)ccc1C(=O)Cn1ccc(OCc2ccc(Br)cn2)cc1=O [Example 4.5, (S)-4-(5-Bromo-pyridin-2-ylmethoxy)-1-{2-[4-(2-hydroxymethyl-pyrrolidin-1-ylmethyl)-2-methyl-phenyl]-2-oxo-ethyl}-1H-pyridin-2-one]
50 nM	CCNCc1ccc(C(=O)Cn2ccc(OCc3ccc(Br)cn3)cc2=O)c(C)c1 [Example 4.6, 4-(5-Bromo-pyridin-2-ylmethoxy)-1-[2-(4-ethylaminomethyl-2-methyl-phenyl)-2-oxo-ethyl]-1H-pyridin-2-one]
14 nM	Cc1cc(CN2CCCC[C@@H]2CO)ccc1C(=O)Cn1ccc(OCc2ccc(Br)cn2)cc1=O [Example 4.7, (R)-4-(5-Bromo-pyridin-2-ylmethoxy)-1-{2-[4-(2-hydroxymethyl-piperidin-1-ylmethyl)-2-methyl-phenyl]-2-oxo-ethyl}-1H-pyridin-2-one]

More lines, now with the values behind:

Structure (SMILES)	IC50
Cc1cc(CN2CC(O)C2)ccc1C(=O)Cn1ccc(OCc2ccccc2)cc1=O [Example 1.1, 4-Benzyloxy-1-{2-[4-(3-hydroxy-azetidin-1-ylmethyl)-2-methyl-phenyl]-2-oxo-ethyl}-1H-pyridin-2-one]	20 nM
CNCc1ccc(C(=O)Cn2ccc(OCc3ccccc3)cc2=O)c(C)c1 [Example 1.2, 4-Benzyloxy-1-[2-(2-methyl-4-methylaminomethyl-phenyl)-2-oxo-ethyl]-1H-pyridin-2-one]	19 nM
Cc1cc(CN2CCC(O)CC2)ccc1C(=O)Cn1ccc(OCc2ccccc2)cc1=O [Example 1.3, 4-Benzyloxy-1-{2-[4-(4-hydroxy-piperidin-1-ylmethyl)-2-methyl-phenyl]-2-oxo-ethyl}-1H-pyridin-2-one]	19 nM
Cc1cc(CN2CCOCC2)ccc1C(=O)Cn1ccc(OCc2ccccc2)cc1=O [Example 1.4]	40 nM
Cc1cc(CN2CCN(C)CC2)ccc1C(=O)Cn1ccc(OCc2ccccc2)cc1=O [Example 1.5, 4-Benzyloxy-1-{2-[2-methyl-4-(4-methyl-piperazin-1-ylmethyl)-phenyl]-2-oxo-ethyl}-1H-pyridin-2-one]	48 nM
Cc1cc(CN2CCC(CO)CC2)ccc1C(=O)Cn1ccc(OCc2ccccc2)cc1=O [Example 1.6, 4-Benzyloxy-1-{2-[4-(4-hydroxymethyl-piperidin-1-ylmethyl)-2-methyl-phenyl]-2-oxo-ethyl}-1H-pyridin-2-one]	24 nM
Cc1cc(CN2CCCC2)ccc1C(=O)Cn1ccc(OCc2ccccc2)cc1=O [Example 1.7, 4-Benzyloxy-1-[2-(2-methyl-4-pyrrolidin-1-ylmethyl-phenyl)-2-oxo-ethyl]-1H-pyridin-2-one]	11 nM
Cc1cc(CN2CCCCC2)ccc1C(=O)Cn1ccc(OCc2ccccc2)cc1=O [Example 1.9]	11 nM
Cc1cc(CN2CCC(C)(O)C2)ccc1C(=O)Cn1ccc(OCc2ccccc2)cc1=O (centres unmarked) [Example 1.10, 4-Benzyloxy-1-{2-[4-(3-hydroxy-3-methyl-pyrrolidin-1-ylmethyl)-2-methyl-phenyl]-2-oxo-ethyl}-1H-pyridin-2-one]	26 nM
Cc1cc(CN2CC[C@H](O)C2)ccc1C(=O)Cn1ccc(OCc2ccccc2)cc1=O [Example 1.11, (S)-4-Benzyloxy-1-{2-[4-(3-hydroxy-pyrrolidin-1-ylmethyl)-2-methyl-phenyl]-2-oxo-ethyl}-1H-pyridin-2-one]	30 nM
CCNCc1ccc(C(=O)Cn2ccc(OCc3ccccc3)cc2=O)c(C)c1 [Example 1.12, 4-Benzyloxy-1-[2-(4-ethylaminomethyl-2-methyl-phenyl)-2-oxo-ethyl]-1H-pyridin-2-one]	21 nM
Cc1cc(CN2CCC[C@H](O)C2)ccc1C(=O)Cn1ccc(OCc2ccccc2)cc1=O [Example 1.13, (S)-4-Benzyloxy-1-{2-[4-(3-hydroxy-piperidin-1-ylmethyl)-2-methyl-phenyl]-2-oxo-ethyl}-1H-pyridin-2-one]	29 nM
Cc1cc(CN2CC[C@@H](O)C2)ccc1C(=O)Cn1ccc(OCc2ccccc2)cc1=O [Example 1.14]	53 nM
Cc1cc(CN2CCC[C@@H](O)C2)ccc1C(=O)Cn1ccc(OCc2ccccc2)cc1=O [Example 1.15, (R)-4-Benzyloxy-1-{2-[4-(3-hydroxy-piperidin-1-ylmethyl)-2-methyl-phenyl]-2-oxo-ethyl}-1H-pyridin-2-one]	31 nM
Cc1cc(CN2CCCC[C@@H]2CO)ccc1C(=O)Cn1ccc(OCc2ccccc2)cc1=O [Example 1.16]	29 nM
Cc1cc(CN2CCC[C@H]2CO)ccc1C(=O)Cn1ccc(OCc2ccccc2)cc1=O [Example 1.17, (S)-4-Benzyloxy-1-{2-[4-(2-hydroxymethyl-pyrrolidin-1-ylmethyl)-2-methyl-phenyl]-2-oxo-ethyl}-1H-pyridin-2-one]	26 nM
Cc1cc(CN2CC3CC(C2)C3O)ccc1C(=O)Cn1ccc(OCc2ccccc2)cc1=O (centres unmarked) [Example 1.18]	16 nM
Cc1cc(CN2CCCC2)ccc1C(=O)Cn1ccc(OCc2ccc(F)cn2)cc1=O [Example 2.1, 4-(5-Fluoro-pyridin-2-ylmethoxy)-1-[2-(2-methyl-4-pyrrolidin-1-ylmethyl-phenyl)-2-oxo-ethyl]-1H-pyridin-2-one]	67 nM
Cc1cc(CN2CCCCC2)ccc1C(=O)Cn1ccc(OCc2ccc(F)cn2)cc1=O [Example 2.2]	116 nM
Cc1cc(CN2CCC(O)CC2)ccc1C(=O)Cn1ccc(OCc2ccc(F)cn2)cc1=O [Example 2.3]	93 nM
Cc1cc(CN(C)C)ccc1C(=O)Cn1ccc(OCc2ccc(F)cn2)cc1=O [Example 2.5]	70 nM
CCNCc1ccc(C(=O)Cn2ccc(OCc3ccc(F)cn3)cc2=O)c(C)c1 [Example 2.6]	134 nM
Cc1cc(CN2CCCCC2)ccc1C(=O)Cn1ccc(OCc2ccc(Cl)cn2)cc1=O [Example 3.6]	26 nM
CNCc1ccc(C(=O)Cn2ccc(OCc3ccc(Cl)cn3)cc2=O)c(C)c1 [Example 3.10]	37 nM
